Test results from patent US9839701B2, “Aromatic amino acid derivative and positron emission topography (PET) probe using the same” (OSAKA UNIVERSITY, priority 2013, dated 2017).

Tests used:
human LAT1 = biological target: T1, human LAT1 (Homo sapiens, UniProt Q01650); assay: Inhibition of amino acid uptake in human LAT1 stably expressing cell line; assay type: cell-based
T1 construct: expressed in transfected cells
Text: (§1) A human LAT1 expression vector or a human LAT2 expression vector was transfected using Lipofectamine (registered trademark) 2000 (Invitrogen) into a human embryonic kidney cell line HEK293. G418-resistant HEK293 clones were selected, and among them, a clone showing human LAT1-specific amino acid uptake and a clone showing human LAT2-specific amino acid uptake were selected and established as a human LAT1 stably expressing cell line and a human LAT2 stably expressing cell line, respectively (Khunweeraphong et al. J Pharmacol Sci. 2012 Aug. 18; 119(4): 368-80. Epub 2012 Jul. 31).
(§2) The human LAT1 stably expressing cell line and the human LAT2 stably expressing cell line were seeded at 1.2×10^5 cells/well on separate collagen-coated 24-well plates, and after 48 hours, the cells were washed 3 times with an uptake buffer (Na^2+-free Hank's balanced salt solution (HBSS), pH 7.4) prewarmed at 37° C. Compound 10a, compound 10b or a positive control FAMT (fluoro-α-methyltyrosine) was added at 100 μM, and incubation was performed at 37° C. for 3 minutes. Cells not treated with any of these compounds were used as a negative control. After the incubation, 1 μM of [^14C]L-leucine or [^14C]alanine was added to the wells, [^14C]L-leucine or [^14C]alanine uptake was allowed to proceed for 1 minute, and the cells were washed 3 times with an ice-cold uptake buffer. Subsequently, 500 μL of 0.1 M NaOH was added to each well for cell lysis, 20 μL of the lysate was used for the measurement of the protein concentration, and the remaining lysate was used for the measurement of the intracellular radioactivity. The measured radioactivity was normalized to the protein concentration, and on the assumption that the amino acid uptake activity in the negative control was 100%, the percentage (%) of inhibition of amino acid uptake in the presence of each compound was calculated.
(§3) Using the same cell lines as described in Example 2, the compound of Example 1 was examined for the inhibitory effect on leucine or alanine uptake in the human LAT1 stably expressing cell line and the human LAT2 stably expressing cell line in the same manner as in Example 2. FAMT was used as the positive control. The compound of Example 1 or FAMT was added at 100 μM. Cells not treated with either of these compounds were used as a negative control. On the assumption that the amino acid uptake activity in the negative control (control) was 100%, the percentage (%) of inhibition of amino acid uptake in the presence of FAMT or the compound of Example 1 was calculated. In addition, the cancer cell selectivity was calculated as the ratio of the amino acid uptake activity in the human LAT2 stably expressing cell line relative to that in the human LAT1 stably expressing cell line.
(§4) In another experiment, the cells were treated with the compound of Example 1 at eight different concentrations (0.1, 1, 3, 10, 30, 100, 300 and 1000 μM), and the concentration causing 50% inhibition of amino acid uptake was calculated as the IC50 value.
(§5) A human LAT1 stably expressing cell line and a human LAT2 stably expressing cell line, each of which was the same as described in Example 2, were seeded at 1.2×10^5 cells/well, and after 48 hours, the cells were washed 3 times with an uptake buffer (Na^2+-free Hank's balanced salt solution (HBSS), pH 7.4) prewarmed at 37° C. The test compounds, L-tyrosine or the positive control FAMT (fluoro-α-methyltyrosine) was added at 30 μM, and incubation was performed at 37° C. for 3 minutes. Cells not treated with any of these compounds were used as a negative control. After the incubation, 1 μM of [^14C]L-leucine or [^14C]alanine was added to the wells, [^14C]L-leucine or [^14C]alanine uptake was allowed to proceed for 1 minute, and the cells were washed 3 times with an ice-cold uptake buffer. […]

human LAT2 = biological target: T2, human LAT2 (Homo sapiens, UniProt Q9UHI5); assay: Inhibition of amino acid uptake in human LAT2 stably expressing cell line; assay type: cell-based
T2 construct: expressed in transfected cells
T2 sequence (Q9UHI5 1-535): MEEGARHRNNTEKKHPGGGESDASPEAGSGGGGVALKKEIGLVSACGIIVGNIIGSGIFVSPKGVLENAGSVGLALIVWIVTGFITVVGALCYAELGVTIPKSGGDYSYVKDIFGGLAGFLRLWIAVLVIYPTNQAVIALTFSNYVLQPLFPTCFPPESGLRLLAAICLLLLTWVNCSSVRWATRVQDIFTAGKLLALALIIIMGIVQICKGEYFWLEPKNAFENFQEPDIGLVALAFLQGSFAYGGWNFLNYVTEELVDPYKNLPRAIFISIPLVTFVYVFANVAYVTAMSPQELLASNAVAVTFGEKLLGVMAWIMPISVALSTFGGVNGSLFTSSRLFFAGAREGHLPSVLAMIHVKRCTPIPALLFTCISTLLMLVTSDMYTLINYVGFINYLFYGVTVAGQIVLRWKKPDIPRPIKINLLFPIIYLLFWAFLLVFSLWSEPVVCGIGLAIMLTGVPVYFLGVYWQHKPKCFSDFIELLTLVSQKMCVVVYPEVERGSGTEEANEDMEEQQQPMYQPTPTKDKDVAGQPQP
T2 sequence (P08195 1-529 partner): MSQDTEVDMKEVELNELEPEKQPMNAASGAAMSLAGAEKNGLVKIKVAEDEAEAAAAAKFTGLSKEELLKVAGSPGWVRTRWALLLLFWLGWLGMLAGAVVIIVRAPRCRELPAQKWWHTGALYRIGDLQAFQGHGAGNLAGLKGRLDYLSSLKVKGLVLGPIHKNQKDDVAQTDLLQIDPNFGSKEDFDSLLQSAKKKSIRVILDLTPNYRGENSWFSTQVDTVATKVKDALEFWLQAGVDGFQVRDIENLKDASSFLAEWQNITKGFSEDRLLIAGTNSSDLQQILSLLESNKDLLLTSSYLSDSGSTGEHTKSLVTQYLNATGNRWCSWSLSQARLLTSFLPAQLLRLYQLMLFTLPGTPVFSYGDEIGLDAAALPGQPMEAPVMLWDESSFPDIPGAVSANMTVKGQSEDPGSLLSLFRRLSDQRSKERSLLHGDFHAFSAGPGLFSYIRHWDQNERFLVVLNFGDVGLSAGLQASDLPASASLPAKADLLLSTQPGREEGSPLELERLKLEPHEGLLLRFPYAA
Text: as §1, §2, §3, §4, §5

[1] = eight concentrations 0.1-1000 μM

T1 sequence (Q01650 whole entry, one chain of several): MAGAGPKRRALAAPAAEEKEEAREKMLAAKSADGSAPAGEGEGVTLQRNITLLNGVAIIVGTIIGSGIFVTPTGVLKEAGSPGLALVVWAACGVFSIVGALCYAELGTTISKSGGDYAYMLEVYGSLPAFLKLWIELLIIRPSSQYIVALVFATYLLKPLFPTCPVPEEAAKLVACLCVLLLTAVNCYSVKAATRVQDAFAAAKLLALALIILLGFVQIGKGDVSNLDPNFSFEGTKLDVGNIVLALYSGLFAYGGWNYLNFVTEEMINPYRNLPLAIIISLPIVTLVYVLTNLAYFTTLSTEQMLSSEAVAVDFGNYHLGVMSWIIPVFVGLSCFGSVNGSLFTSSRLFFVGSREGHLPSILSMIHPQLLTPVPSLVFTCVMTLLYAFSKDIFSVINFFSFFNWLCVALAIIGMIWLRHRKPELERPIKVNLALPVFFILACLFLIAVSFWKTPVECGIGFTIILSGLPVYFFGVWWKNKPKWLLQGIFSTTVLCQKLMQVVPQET

inhibition at 100 µM (human LAT1; HEK293, compound at 100 μM, human LAT1 stably expressing HEK293 cell line, 1 μM [14C]L-leucine or [14C]alanine, 1 min uptake, read-out: Percentage of inhibition of LAT1-mediated amino acid uptake): 92.5%
IC50 (human LAT1; [1]): 9.2 µM
Selectivity for LAT1 over LAT2 (human LAT1; from IC50 values): ≥ 9 times
inhibition at 100 µM (human LAT2; HEK293, compound at 100 μM, human LAT2 stably expressing HEK293 cell line, 1 μM [14C]L-leucine or [14C]alanine, 1 min uptake, read-out: Percentage of inhibition of LAT2-mediated amino acid uptake): 55.1%
IC50 (human LAT2; [1]): 84 µM
SMILES: NC(Cc1cc(OCCF)ccc1I)C(=O)O (centres unmarked) [Example 1, 2-amino-3-(5-(2-fluoroethoxy)-2-iodophenyl)propanoic acid]
